From ChEMBL document CHEMBL4130416, “Glycine-replaced derivatives of [Pro3,DLeu9]TL, a temporin L analogue: Evaluation of antimicrobial, cytotoxic and hemolytic activities” (Eur J Med Chem, 2017) come the findings set out here.

The subject of one data set is Pichia kudriavzevii. Put plainly: Antimicrobial activity against Candida krusei ATCC 6258 after 18 to 20 hrs by microbroth dilution method. The class given is functional. For orientation: In broth dilution the organism is exposed to a series of concentrations in liquid medium.
The subject of a further data set is Priestia megaterium. Nature of the data set: Antimicrobial activity against Bacillus megaterium Bm11 after 18 to 20 hrs by microbroth dilution method. The format is functional.
A further data set deals with Staphylococcus aureus. Nature of the data set: Antimicrobial activity against Staphylococcus aureus Cowan I after 18 to 20 hrs by microbroth dilution method. The class given is functional.
For another data set, the system named is Escherichia coli. Put plainly: Antimicrobial activity against Escherichia coli D21 after 18 to 20 hrs by microbroth dilution method. The format is functional.
Data set [1] relates to Acinetobacter baumannii. Put plainly: Antimicrobial activity against Acinetobacter baumannii ATCC 19606 after 18 to 20 hrs by microbroth dilution method. The class given is functional. The settings on record: ATCC 19606 = CIP 70.34 = JCM 6841.
Data set [2] relates to Staphylococcus epidermidis. Nature of the data set: Antimicrobial activity against Staphylococcus epidermidis ATCC 12228 after 18 to 20 hrs by microbroth dilution method. The format is functional.
A further data set has as its system Pseudomonas aeruginosa. Put plainly: Antimicrobial activity against Pseudomonas aeruginosa ATCC 27853 after 18 to 20 hrs by microbroth dilution method. The format is functional.
Data set [3] deals with HaCaT. Put plainly: Cytotoxicity against human HaCaT cells at 1.56 to 6.25 uM after 24 hrs by MTT assay. The class given is cell-based. In general terms: Tetrazolium dyes change colour on reduction, which living cells bring about.
The test system of data set [4] is HaCaT. Put plainly: Cytotoxicity against human HaCaT cells at 50 uM after 24 hrs by MTT assay relative to control. The class given is cell-based.
Data set [5] relates to HaCaT. Nature of the data set: Cytotoxicity against human HaCaT cells at 12.5 uM after 24 hrs by MTT assay relative to control. The class given is cell-based.
The test system of the next data set is Pseudomonas syringae. Nature of the data set: Antimicrobial activity against Pseudomonas syringae pv tabaci NCPPB 1918 after 18 to 20 hrs by microbroth dilution method. The class given is functional, Pseudomonas amygdali pv. tabaci.
Data set [6] concerns Candida albicans. Nature of the data set: Antimicrobial activity against Candida albicans ATCC 10231 after 18 to 20 hrs by microbroth dilution method. The class given is functional.
Data set [7] deals with HaCaT. Nature of the data set: Cytotoxicity against human HaCaT cells at 25 uM after 24 hrs by MTT assay relative to control. The class given is cell-based.
Data set [8] has as its system Acinetobacter baumannii. Put plainly: Antimicrobial activity against Acinetobacter baumannii ATCC 19606 assessed as induction of membrane-perturbation at MIC measured every minute for 120 mins by SYTOX green fluorescence dye influx assay. The format is functional, organism-based. To be noted: ATCC 19606 = CIP 70.34 = JCM 6841.
Data set [9] concerns Candida albicans. Put plainly: Antimicrobial activity against Candida albicans ATCC 10231 assessed as induction of membrane-perturbation at MIC measured every minute for 10 mins by SYTOX green fluorescence dye influx assay. The format is functional, organism-based.
For data set [10], the system named is Staphylococcus epidermidis. Put plainly: Antimicrobial activity against Staphylococcus epidermidis ATCC 12228 assessed as membrane-perturbation measured every minute for 120 mins by SYTOX green fluorescence dye influx assay. The format is functional, organism-based.

≈ marks a conversion by molar mass, not a printed value. Calls of active or inactive are those of the source. Where a SMILES comes first, the peptide text is derived from it. [ ]: non-standard residue; d: D form. Aic = NC1(C(=O)O)Cc2ccccc2C1 A value given as a limit tells only on which side of the number the result lay.

The MIC is the smallest concentration in the dilution series that meets the test's criterion for growth inhibition. A high value points to a need for much substance. With `CC[C@H](C)[C@H](NC(=O)[C@H](CCCNC(=N)N)NC(=O)[C@@H]1C[C@@H](O)CN1C(=O)[C@@H](CC(C)C)NC(=O)[C@H](Cc1ccccc1)NC(=O)[C@H](CCCCN)NC(=O)[C@H](CO)NC(=O)[C@H](Cc1ccccc1)NC(=O)[C@H](Cc1c[nH]c2ccccc12)NC(=O)[C@@H]1CCCN1C(=O)[C@@H](NC(=O)[C@@H](N)Cc1ccccc1)C(C)C)C(=O)N[C@@H](CC(C)C)C(N)=O`, the MIC was determined as 1.56 µM (≈ 2.6 µg/mL) against Pichia kudriavzevii; 1.56 µM (≈ 2.6 µg/mL) against Priestia megaterium; 6.25 µM (≈ 10.4 µg/mL) against Staphylococcus aureus; 25 µM (≈ 41.6 µg/mL) against Escherichia coli; 6.25 µM (≈ 10.4 µg/mL) with Acinetobacter baumannii [1]; 6.25 µM (≈ 10.4 µg/mL) in data set [2]. The MIC against Pseudomonas aeruginosa came out at 50 µM (≈ 83.3 µg/mL); in the data set on Pseudomonas syringae it was 12.5 µM (≈ 20.8 µg/mL); in the data set with Candida albicans [6] it was 3.12 µM (≈ 5.2 µg/mL). Further, the Activity result with HaCaT [3] is given as “Non-Toxic”; in the data set on HaCaT [4] it was 98.81%; with HaCaT [5], 2.76%; in the data set on HaCaT [7] it was 84.72%.
`CC[C@H](C)[C@H](NC(=O)[C@H](CCCNC(=N)N)NC(=O)[C@H]1C[C@@H](O)CN1C(=O)[C@@H](CC(C)C)NC(=O)[C@H](Cc1ccccc1)NC(=O)[C@H](CCCCN)NC(=O)[C@H](CO)NC(=O)[C@H](Cc1ccccc1)NC(=O)[C@H](Cc1c[nH]c2ccccc12)NC(=O)[C@@H]1CCCN1C(=O)[C@@H](NC(=O)[C@@H](N)Cc1ccccc1)C(C)C)C(=O)N[C@@H](CC(C)C)C(N)=O`: the MIC in the data set on Pichia kudriavzevii is 3.12 µM (≈ 5.2 µg/mL); in the data set with Priestia megaterium, 3.12 µM (≈ 5.2 µg/mL); against Staphylococcus aureus, > 50 µM; in the data set on Escherichia coli, 25 µM (≈ 41.6 µg/mL); in the data set on Acinetobacter baumannii [1], 25 µM (≈ 41.6 µg/mL); in data set [2] it was 50 µM (≈ 83.3 µg/mL). The values for the MIC in the data set with Pseudomonas aeruginosa, in the data set with Pseudomonas syringae and in the data set on Candida albicans [6] were > 50 µM, > 50 µM and 3.12 µM (≈ 5.2 µg/mL), respectively. Further, the Activity result with HaCaT [3] is listed as “Non-Toxic”; in the data set on HaCaT [4], 0%; in the data set on HaCaT [5] it was 0%; with HaCaT [7], 0%.
As to `CC[C@H](C)[C@H](NC(=O)[C@H](CCCNC(=N)N)NC(=O)[C@@H]1CCCN1C(=O)[C@@H](CC(C)C)NC(=O)[C@H](Cc1ccccc1)NC(=O)[C@H](CCCCN)NC(=O)[C@H](CO)NC(=O)[C@H](Cc1ccccc1)NC(=O)[C@H](Cc1c[nH]c2ccccc12)NC(=O)[C@@H]1CCCN1C(=O)[C@@H](NC(=O)[C@@H](N)Cc1ccccc1)C(C)C)C(=O)N[C@@H](CC(C)C)C(N)=O` (H-FVPWFSKF[dL]PRIL-NH2), the MIC in the data set with Pichia kudriavzevii worked out at 1.56 µM (≈ 2.57 µg/mL); with Priestia megaterium, 1.56 µM (≈ 2.57 µg/mL); in the data set with Staphylococcus aureus, 3.12 µM (≈ 5.15 µg/mL); against Escherichia coli, 25 µM (≈ 41.2 µg/mL); in the data set on Acinetobacter baumannii [1], 6.25 µM (≈ 10.3 µg/mL); in [2], 3.12 µM (≈ 5.15 µg/mL). Also, the results for the MIC in the data set on Pseudomonas aeruginosa, in the data set with Pseudomonas syringae and against Candida albicans [6] were 50 µM (≈ 82.5 µg/mL), 12.5 µM (≈ 20.6 µg/mL) and 1.56 µM (≈ 2.57 µg/mL), respectively. The Activity entry is “Non-Toxic” with HaCaT [3], 96.61% with HaCaT [4], 16.15% in the data set with HaCaT [5] and 77.06% in the data set on HaCaT [7].
In the case of `CC[C@H](C)[C@H](NC(=O)[C@H](CCCNC(=N)N)NC(=O)C1(NC(=O)[C@@H](CC(C)C)NC(=O)[C@H](Cc2ccccc2)NC(=O)[C@H](CCCCN)NC(=O)[C@H](CO)NC(=O)[C@H](Cc2ccccc2)NC(=O)[C@H](Cc2c[nH]c3ccccc23)NC(=O)[C@@H]2CCCN2C(=O)[C@@H](NC(=O)[C@@H](N)Cc2ccccc2)C(C)C)Cc2ccccc2C1)C(=O)N[C@@H](CC(C)C)C(N)=O` (H-FVPWFSKF[dL][Aic]RIL-NH2), the MIC in the data set with Pichia kudriavzevii is 6.25 µM (≈ 10.7 µg/mL); with Priestia megaterium it was 1.56 µM (≈ 2.67 µg/mL); against Staphylococcus aureus it was 1.56 µM (≈ 2.67 µg/mL); against Escherichia coli, > 50 µM; in the data set on Acinetobacter baumannii [1], 3.12 µM (≈ 5.35 µg/mL); in data set [2], 1.56 µM (≈ 2.67 µg/mL). The MIC against Pseudomonas aeruginosa is > 50 µM; against Pseudomonas syringae it was 1.56 µM (≈ 2.67 µg/mL); against Candida albicans [6] it was 6.25 µM (≈ 10.7 µg/mL). Further, the Activity entry with HaCaT [3] is recorded as “Non-Toxic”; in the data set on HaCaT [4], 92.84%; in the data set on HaCaT [5] it was 45.54%; with HaCaT [7], 88.72%.
In the case of `CC[C@H](C)[C@H](NC(=O)[C@H](CCCNC(=N)N)NC(=O)[C@H]1CCCN1C(=O)[C@@H](CC(C)C)NC(=O)[C@H](Cc1ccccc1)NC(=O)[C@H](CCCCN)NC(=O)[C@H](CO)NC(=O)[C@H](Cc1ccccc1)NC(=O)[C@H](Cc1c[nH]c2ccccc12)NC(=O)[C@@H]1CCCN1C(=O)[C@@H](NC(=O)[C@@H](N)Cc1ccccc1)C(C)C)C(=O)N[C@@H](CC(C)C)C(N)=O` (H-FVPWFSKF[dL][dP]RIL-NH2), the MIC with Pichia kudriavzevii was 3.12 µM (≈ 5.15 µg/mL); in the data set with Priestia megaterium, 3.12 µM (≈ 5.15 µg/mL); against Staphylococcus aureus, > 50 µM; against Escherichia coli it was 50 µM (≈ 82.5 µg/mL); in the data set on Acinetobacter baumannii [1], 50 µM (≈ 82.5 µg/mL); in data set [2] it was 25 µM (≈ 41.2 µg/mL). Also, the values for the MIC in the data set with Pseudomonas aeruginosa, in the data set on Pseudomonas syringae and against Candida albicans [6] were > 50 µM, 50 µM (≈ 82.5 µg/mL) and 3.12 µM (≈ 5.15 µg/mL), respectively. Moreover, the Activity entry in the data set with HaCaT [3] is “Non-Toxic”; with HaCaT [4], 0%; in the data set on HaCaT [5], 0%; with HaCaT [7], 0%.
With `CCCC[C@H](NC(=O)[C@@H](CC(C)C)NC(=O)[C@H](Cc1ccccc1)NC(=O)[C@H](CCCCN)NC(=O)[C@H](CO)NC(=O)[C@H](Cc1ccccc1)NC(=O)[C@H](Cc1c[nH]c2ccccc12)NC(=O)[C@@H]1CCCN1C(=O)[C@@H](NC(=O)[C@@H](N)Cc1ccccc1)C(C)C)C(=O)N[C@@H](CCCNC(=N)N)C(=O)NC(C(=O)N[C@@H](CC(C)C)C(N)=O)[C@@H](C)CC` (single isomer, unassigned), the MIC with Pichia kudriavzevii stood at 3.12 µM (≈ 5.2 µg/mL); against Priestia megaterium, 3.12 µM (≈ 5.2 µg/mL); with Staphylococcus aureus, 3.12 µM (≈ 5.2 µg/mL); with Escherichia coli it was 25 µM (≈ 41.6 µg/mL); against Acinetobacter baumannii [1], 6.25 µM (≈ 10.4 µg/mL); in data set [2], 3.12 µM (≈ 5.2 µg/mL). The MIC against Pseudomonas aeruginosa stood at 50 µM (≈ 83.3 µg/mL); in the data set with Pseudomonas syringae it was 6.25 µM (≈ 10.4 µg/mL); in the data set with Candida albicans [6], 3.12 µM (≈ 5.2 µg/mL). For the same compound, the Activity result is given as “Non-Toxic” in the data set on HaCaT [3], 99.76% with HaCaT [4], 12.25% in the data set with HaCaT [5] and 65.86% with HaCaT [7].
In the case of `CC[C@H](C)C(NC(=O)[C@H](CCCNC(=N)N)NC(=O)[C@H](CCCCN)NC(=O)[C@@H](CC(C)C)NC(=O)[C@H](Cc1ccccc1)NC(=O)[C@H](CCCCN)NC(=O)[C@H](CO)NC(=O)[C@H](Cc1ccccc1)NC(=O)[C@H](Cc1c[nH]c2ccccc12)NC(=O)[C@@H]1CCCN1C(=O)[C@@H](NC(=O)[C@@H](N)Cc1ccccc1)C(C)C)C(=O)N[C@@H](CC(C)C)C(N)=O` (single isomer, unassigned), the MIC was 1.56 µM (≈ 2.62 µg/mL) against Pichia kudriavzevii; 3.12 µM (≈ 5.25 µg/mL) in the data set with Priestia megaterium; 6.25 µM (≈ 10.5 µg/mL) in the data set with Staphylococcus aureus; 12.5 µM (≈ 21 µg/mL) against Escherichia coli; 3.12 µM (≈ 5.25 µg/mL) in the data set with Acinetobacter baumannii [1]; 3.12 µM (≈ 5.25 µg/mL) in data set [2]. Further, the MIC against Pseudomonas aeruginosa was 12.5 µM (≈ 21 µg/mL); in the data set on Pseudomonas syringae, 6.25 µM (≈ 10.5 µg/mL); against Candida albicans [6], 1.56 µM (≈ 2.62 µg/mL). Besides, the Activity result with HaCaT [3] is “Non-Toxic”; with HaCaT [4] it was 96.79%; in the data set on HaCaT [5], 49.3%; in the data set with HaCaT [7], 66.86%.
As for H-FVQWFSKFLGRIL-NH2, the outcome (in the data set with Acinetobacter baumannii [8]; in the data set on Candida albicans [9]; in [10]) was Active.
